We go through 1 compound from publication PMC4061482 (Frontiers in Oncology, 2014).

In series [1] the test system is AKR1C3. More on the design: method as in PMID 23454516. The settings on record: cited from earlier work.
For series [2], the system named is LAPC4 AKR1C3 cells. Briefly: Testosterone ELISA after androstenedione stimulation. It counts as cell-based. The settings on record: Homo sapiens, 28 nM androstenedione, 24 h, read-out: Inhibition of testosterone levels. On the procedure:
(§1) Cells were seeded into 96-well plates in hormone-deprived media at appropriate seeding densities [10,000–50,000 cells per well for all lines except HCC1500 (100,000 cells per well; 11β-PGF2α ELISA)] to reach approximately 70% confluency at the time of sampling and were left to settle for 24 h at 37°C and 5% CO2. Inhibitors were added to the plates at single or multiple concentrations for 1 h prior to administration of equimolar (28 nM) concentrations of PGD2 (11β-PGF2α ELISA), androstenedione (testosterone ELISA), or estrone (17β-estradiol ELISA). […] Each ELISA plate was read at a wavelength of 405 nm (11β-PGF2α and testosterone) or 650 nM (17β-estradiol) on a SpectraMax M2 microplate reader (Molecular Devices) and quantitated against a standard curve generated in hormone-deprived culture media. […]
(§2) Since AKR1C3 has been implicated in the development of CRPC because of its ability to produce testosterone intratumorally from circulating androstenedione, we determined testosterone concentrations in the prostate cancer cell lines and known high and low AKR1C3-expressing cells after stimulation with androstenedione for 24 h. […]

For series [3], the system named is NCI-H460 cells. As to the kind of experiment: 17β-estradiol ELISA after estrone stimulation. It counts as cell-based. Particulars: Homo sapiens, 28 nM estrone, 24 h, read-out: Inhibition of 17β-estradiol formation. On the procedure:
Cells were seeded into 96-well plates in hormone-deprived media at appropriate seeding densities [10,000–50,000 cells per well for all lines except HCC1500 (100,000 cells per well; 11β-PGF2α ELISA)] to reach approximately 70% confluency at the time of sampling and were left to settle for 24 h at 37°C and 5% CO2. Inhibitors were added to the plates at single or multiple concentrations for 1 h prior to administration of equimolar (28 nM) concentrations of PGD2 (11β-PGF2α ELISA), androstenedione (testosterone ELISA), or estrone (17β-estradiol ELISA). The plates were returned to the incubator for a further 24 h before cell supernatant was removed for analysis of 11β-PGF2α, testosterone, or 17β-estradiol by ELISA as per manufacturer’s instructions (11β-PGF2α and testosterone ELISA, Cayman Chemical Company; 17β-estradiol ELISA, Oxford Biomedical Research), and cells were fixed for sulforhodamine B analysis as described below. Each ELISA plate was read at a wavelength of 405 nm (11β-PGF2α and testosterone) or 650 nM (17β-estradiol) on a SpectraMax M2 microplate reader (Molecular Devices) and quantitated against a standard curve generated in hormone-deprived culture media. Cross-reactivity to PGD2, androstenedione, or estrone was accounted for by adding these to cell-free wells of each ELISA plate. […]
Background: ELISA stands for enzyme-linked immunosorbent assay.

Series [4] deals with other AKR1C isoforms. Briefly: Inhibition of isolated AKR1C enzymes. It counts as biochemical. Particulars: 10 μM; unpublished data.
Series [5] relates to all cell lines. Briefly: Unstimulated cell proliferation (sulforhodamine B), 5 days, all cell lines. It counts as cell-based, human. The settings on record: 10 μM, all cell lines except MCF7. On the procedure:
(§3) Cells were seeded into 96-well plates in hormone-deprived media at appropriate seeding densities (5000–20,000 cells per well) to reach approximately 70% confluency at the time of sampling and left to settle for 48 h at 37°C and 5% CO2. […] The plates were returned to the incubator for 5 days before fixing in 10% trichloroacetic acid (Merck Millipore) at 4°C for 1 h and staining with 0.4% sulforhodamine B (Sigma-Aldrich) in 1% acetic acid for 30 min in the dark at room temperature. Plates were washed in 1% acetic acid, dried, and incubated with unbuffered Tris base (10 mM; Serva) for 30 min on a plate shaker in the dark to solubilize the stain. The plates were read on a BioTek EL808 microplate reader at an absorbance of 490 nm with a reference wavelength of 450 nm.
(§4) Finally, we investigated whether inhibiting AKR1C3-dependent testosterone or 17β-estradiol production could prevent androstenedione- or estrone-stimulated cell proliferation in CRPC or ER-positive breast cancer cells.

For series [6], the system named is NCI-H460 cells. Briefly: Testosterone ELISA after androstenedione stimulation. It counts as cell-based, human. Particulars: Homo sapiens, NCI-H460; 10 μM; 28 nM androstenedione, 24 h; read-out: Inhibition of testosterone levels. On the procedure: (§5) Cells were seeded into 96-well plates in hormone-deprived media at appropriate seeding densities [10,000–50,000 cells per well for all lines except HCC1500 (100,000 cells per well; 11β-PGF2α ELISA)] to reach approximately 70% confluency at the time of sampling and were left to settle for 24 h at 37°C and 5% CO2. Inhibitors were added to the plates at single or multiple concentrations for 1 h prior to administration of equimolar (28 nM) concentrations of PGD2 (11β-PGF2α ELISA), androstenedione (testosterone ELISA), or estrone (17β-estradiol ELISA). The plates were returned to the incubator for a further 24 h before cell supernatant was removed for analysis of 11β-PGF2α, testosterone, or 17β-estradiol by ELISA as per manufacturer’s instructions (11β-PGF2α and testosterone ELISA, Cayman Chemical Company; 17β-estradiol ELISA, Oxford Biomedical Research), and cells were fixed for sulforhodamine B analysis as described below. Each ELISA plate was read at a wavelength of 405 nm (11β-PGF2α and testosterone) or 650 nM (17β-estradiol) on a SpectraMax M2 microplate reader (Molecular Devices) and quantitated against a standard curve generated in hormone-deprived culture media. Cross-reactivity to PGD2, androstenedione, or estrone was accounted for by adding these to cell-free wells of each ELISA plate.
(§6) Since AKR1C3 has been implicated in the development of CRPC because of its ability to produce testosterone intratumorally from circulating androstenedione, we determined testosterone concentrations in the prostate cancer cell lines and known high and low AKR1C3-expressing cells after stimulation with androstenedione for 24 h.

Series [7] relates to HCT116 AKR1C3 cells. Described as above. It counts as cell-based, human. The settings on record: Homo sapiens, HCT-116; for inhibition at 10 µM: read-out: Inhibition of testosterone levels. On the procedure:
as §5, §6

The test system of series [8] is 22RV1 cells. As to the kind of experiment: Cell proliferation (sulforhodamine B), 5 days. It counts as cell-based, human. Particulars: 10 μM. On the procedure: as §3, §4
Series [9] concerns LAPC4 AKR1C3 cells. Briefly: Cell proliferation (sulforhodamine B), 5 days. It counts as cell-based, human. On the procedure:
as §3, §4

In series [10] the test system is LAPC4 wild-type cells. Briefly: Cell proliferation (sulforhodamine B), 5 days. It counts as cell-based, human. Particulars: 10 μM. On the procedure:
as §3, §4

The test system of series [11] is LNCaP cells. As to the kind of experiment: Testosterone ELISA after androstenedione stimulation. It counts as cell-based, human. Particulars: 10 μM; 28 nM androstenedione, 24 h; P < 0.05. On the procedure: as §1, §2
Series [12] concerns T47D cells. Briefly: Cell proliferation (sulforhodamine B), 5 days. It counts as cell-based, human. The settings on record: 10 μM, estrone up to 10 nM. On the procedure: as §3
(§7) Neither androstenedione nor estrone-stimulated cell proliferation in the HCT116 AKR1C3 and wild-type cell lines (data not shown).

Series [13] concerns T47D AKR1C3 cells. As to the kind of experiment: Cell proliferation (sulforhodamine B), 5 days. It counts as cell-based, human. The settings on record: 10 μM, estrone up to 10 nM. On the procedure: as §3, §7
Series [14] concerns LAPC4 wild-type cells. Briefly: PSA concentration after androstenedione stimulation. It counts as cell-based, human. The settings on record: 10 μM; androstenedione up to 10 nM, 24 h. On the procedure: Cells were seeded at 20,000 cells per well (LAPC4, LAPC4 AKR1C3) or 50,000 cells per well (22RV1) into 96-well plates in hormone-deprived media and left to settle for 24 h at 37°C and 5% CO2. […] The plates were returned to the incubator for 24 h, before the cell supernatant was removed and frozen for PSA analysis. Determination of total PSA concentration was carried out at LabPLUS, Auckland City Hospital, by immunoassay on a Cobas® e601 analyzer according to manufacturer’s instructions (Roche).
Next, PSA expression was determined in the CRPC cell lines that were sensitive to SN33638-mediated inhibition of testosterone (LAPC4 AKR1C3 and 22RV1 with LAPC4 wild-type cells acting as a negative control) as a biomarker of AR activity. […] Androstenedione stimulation promoted PSA production in all three cell lines, with the highest PSA levels observed in LAPC4 AKR1C3 cells.

SMILES strings stand for the structures. Like-named read-outs stand apart in the source and are kept apart here. Some results are limits rather than exact numbers.

Take `CC1CCCCN1S(=O)(=O)c1ccc(N2CCCC2=O)cc1` (centres unmarked) [SN33638]: the “Potency against AKR1C3” value in [1] is on record as “low nanomolar”. Moreover, the inhibition at 10 µM in [2] was 96.8%; in series [3], 39.6%; in series [6] it was 54.1%; in series [7] (10 μM alone, Figure 4D), 73.7%; in [7] (10 μM, 28 nM androstenedione, 24 h, Figure 4B), 74.2%; in series [9] (Homo sapiens, LAPC4, 120 h, 0.1 nM androstenedione, read-out: Inhibition of androstenedione-stimulated cell proliferation), 101%. Also, the “Inhibition against each isolated enzyme (other AKR1C isoforms)” value in series [4] was less than 14%. Also, in series [5], the “Effect on unstimulated cell proliferation” value was “no effect”. Moreover, in series [7] (HCT116 AKR1C3 cells, 28 nM androstenedione, 24 h, read-out: EC50 of inhibition of testosterone production), the EC50 was determined as 7.4 ± 1.2 nM. Also, the “Effect on androstenedione-stimulated cell proliferation” value in series [8] and in series [10] was “no effect” in each case. In [9] (10 μM, 1 nM androstenedione, non-significant), the “Reduction in androstenedione-stimulated cell proliferation” value is 45.9%. For the same compound, the “Effect on testosterone levels” value in [11] is reported as “significantly increased”. Also, the “Effect on estrone-stimulated cell proliferation” value in [12] and in series [13] was “not significantly inhibited” each time. For the same compound, the “Effect on PSA formation” value in [14] is listed as “no significant effect”.

The EC50 is the concentration that produces a half-maximal response.
